Data taken from the CheMixHub viscosity set.

Assay: xn = mol fraction of the nth substance listed

Nc1ccccc1Cl + Clc1cccc(Cl)c1
viscosity [mPa·s], 101 kPa
Details | x1 = 0.1088 | x1 = 0.2155 | x1 = 0.3202 | x1 = 0.4228 | x1 = 0.5235 | x1 = 0.6224 | x1 = 0.7194 | x1 = 0.8147 | x1 = 0.9082
303.15 K | 1.108 | 1.292 | 1.499 | 1.732 | 1.994 | 2.288 | 2.615 | 2.979 | 3.382
308.15 K | 1.043 | 1.211 | 1.398 | 1.607 | 1.84 | 2.098 | 2.382 | 2.695 | 3.038
313.15 K | 0.9857 | 1.138 | 1.308 | 1.496 | 1.703 | 1.931 | 2.179 | 2.45 | 2.743
318.15 K | 0.9257 | 1.066 | 1.222 | 1.392 | 1.579 | 1.781 | 2.001 | 2.237 | 2.491

CC(O)CC(C)(C)O (stereo unspecified) + Clc1ccccc1
viscosity [mPa·s], 101 kPa
Details | x1 = 0.0989 | x1 = 0.1989 | x1 = 0.2931 | x1 = 0.3916 | x1 = 0.4927 | x1 = 0.5867 | x1 = 0.6888 | x1 = 0.7938 | x1 = 0.8999
308.15 K | 0.7755 | 0.9332 | 1.164 | 1.513 | 2.151 | 2.823 | 4.238 | 6.453 | 10.85
318.15 K | 0.6372 | 0.7412 | 0.9438 | 1.242 | 1.814 | 2.278 | 3.416 | 5.241 | 9.228

Nc1ccccc1Cl + Clc1ccccc1Cl
viscosity [mPa·s], 101 kPa
Details | x1 = 0.1063 | x1 = 0.2111 | x1 = 0.3145 | x1 = 0.4164 | x1 = 0.517 | x1 = 0.6162 | x1 = 0.7141 | x1 = 0.8107 | x1 = 0.906
303.15 K | 1.4 | 1.584 | 1.786 | 2.008 | 2.251 | 2.516 | 2.805 | 3.119 | 3.458
308.15 K | 1.295 | 1.461 | 1.642 | 1.84 | 2.054 | 2.287 | 2.539 | 2.81 | 3.101
313.15 K | 1.192 | 1.342 | 1.506 | 1.683 | 1.875 | 2.081 | 2.303 | 2.54 | 2.792
318.15 K | 1.102 | 1.24 | 1.39 | 1.551 | 1.724 | 1.909 | 2.105 | 2.313 | 2.532

Cc1ccccc1N + NCCO
viscosity [mPa·s], 100 kPa
Details | x1 = 0.0997 | x1 = 0.1749 | x1 = 0.2629 | x1 = 0.3629 | x1 = 0.4797 | x1 = 0.5707 | x1 = 0.6849 | x1 = 0.7826 | x1 = 0.8935
303.15 K | 13.32 | 12.49 | 11.51 | 10.39 | 9.093 | 8.076 | 6.799 | 5.704 | 4.459
308.15 K | 11.11 | 10.42 | 9.62 | 8.704 | 7.633 | 6.796 | 5.745 | 4.842 | 3.815
313.15 K | 9.063 | 8.521 | 7.884 | 7.159 | 6.309 | 5.646 | 4.812 | 4.095 | 3.278
318.15 K | 7.032 | 6.632 | 6.161 | 5.624 | 4.994 | 4.503 | 3.884 | 3.352 | 2.744

O=S1(=O)CCCC1 + NCCO
viscosity [mPa·s], 101 kPa
Details | x2 = 0.1 | x2 = 0.3369 | x2 = 0.5426 | x2 = 0.7423 | x2 = 0.8999
303.15 K | 14.02 | 11.47 | 9.923 | 9.547 | 9.78
323.15 K | 7.103 | 6.2 | 5.815 | 5.85 | 6.195

CC(O)CC(C)(C)O (stereo unspecified) + Nc1ccccc1
viscosity [mPa·s], 101 kPa
Details | x1 = 0.0963 | x1 = 0.1952 | x1 = 0.2931 | x1 = 0.3958 | x1 = 0.4941 | x1 = 0.5915 | x1 = 0.6855 | x1 = 0.8047 | x1 = 0.8966
308.15 K | 3.187 | 3.549 | 4.028 | 4.615 | 5.519 | 6.694 | 8.195 | 10.82 | 14.34
318.15 K | 2.348 | 2.62 | 3.031 | 3.543 | 4.32 | 5.405 | 6.826 | 9.45 | 12.55

Cc1ccc(O)cc1 + Nc1ccccc1
viscosity [mPa·s], 101.33 kPa
Details | x1 = 0.2696 | x1 = 0.4987 | x1 = 0.5914 | x1 = 0.7696 | x1 = 0.8857
298.15 K | 6.95 | 10.7 | 12.4 | 14.4 | 14.5
323.15 K | 2.93 | 3.97 | 4.26 | 4.62 | 4.71

O=S1(=O)CCCC1 + Nc1ccccc1
viscosity [mPa·s], 101 kPa
Details | x2 = 0.1 | x2 = 0.1955 | x2 = 0.3007 | x2 = 0.3902 | x2 = 0.4997 | x2 = 0.6003 | x2 = 0.7027 | x2 = 0.7982 | x2 = 0.8995
303.15 K | 9.14 | 8.22 | 7.31 | 6.62 | 5.86 | 5.24 | 4.66 | 4.17 | 3.69
308.15 K | 8.01 | 7.2 | 6.39 | 5.78 | 5.1 | 4.55 | 4.03 | 3.59 | 3.17
313.15 K | 7.05 | 6.33 | 5.61 | 5.06 | 4.46 | 3.97 | 3.51 | 3.12 | 2.75

C[N+](C)(C)CCO.O=C1O[C@H]([C@@H](O)CO)C([O-])=C1O + O
viscosity [mPa·s], 100 kPa
Details | x1 = 0.001102 | x1 = 0.001323 | x1 = 0.001802 | x1 = 0.002629 | x1 = 0.00391 | x1 = 0.005531
293.15 K | 1.048 | 1.056 | 1.072 | 1.099 | 1.141 | 1.192
298.15 K | 0.933 | 0.94 | 0.956 | 0.98 | 1.018 | 1.065
303.15 K | 0.838 | 0.845 | 0.859 | 0.882 | 0.917 | 0.96
308.15 K | 0.758 | 0.764 | 0.778 | 0.799 | 0.832 | 0.872
313.15 K | 0.69 | 0.696 | 0.709 | 0.729 | 0.76 | 0.798
